Where “and” joins values, the source holds several entries; their conditions need not be identical. Identical values can stand only once. Like-named read-outs stand apart in the source and are kept apart here. Marks after values point to notes of the source that are not given here.
Tests used:
[1] = Hepatocyte intrinsic clearance with and without ABT (dog); format: in vitro ADME; details: cryopreserved dog hepatocytes, dog hepatocytes, 0.3 µmol/L compound
Method: (§1) The intrinsic clearance was determined in cryopreserved dog and human hepatocytes essentially as described previously.4 The assay incubation contained 0.3 µmol/L compound and hepatocytes at a concentration of 10^6 cells/mL, with and without 30 minutes pre‐incubation of 1 mmol/L ABT. Intrinsic clearance measurement was initiated by the addition of compound and the incubation quenched at 0.6, 15, 30, 60 and 90 minutes for DPTQ, and at 0.6, 15, 30, 60, 120 and 240 minutes by addition of acetonitrile with 0.1% formic acid. Samples were centrifuged at 3500 g for 10 minutes and the supernatant was analyzed to quantify parent compound loss and the intrinsic clearance values (μL/min/10^6 cells) were calculated using following equation for incubations with and without ABT. CLint=-kdep×incubation volume/10^6cells
(§2) In which the depletion rate constant (k dep) is the slope determined using linear regression from the log transformed percentage remaining on the y‐axis vs time on the x‐axis (min^− ^1). The fraction of metabolism (fm) by P450 was determined by the measurement of the percentage of inhibition of Clint by ABT.

[2] = system: cryopreserved dog hepatocytes; test: as above; format: in vitro ADME; details: for percentage of the metabolism not inhibited by ABT / % of inhibition by ABT: dog hepatocytes; for % of inhibition by ABT: inhibition of Clint by 1 mmol/L ABT (fm by P450); for Hepatic fm by UGT: dog, in hepatocytes
Method: as §1, §2

[3] = system: cryopreserved human hepatocytes; test: Hepatocyte metabolite profile with and without ABT (human); format: in vitro ADME; details: 4 h, 2 μmol/L
Method: Cryopreserved dog and human hepatocytes were obtained from BioreclamationIVT (Baltimore, MD). […] A stock solution of canagliflozin and DTPQ was added to medium to give a final incubation concentration of 2 μmol/L. The incubations including the media and cells were quenched after 4 hours with an equal volume of acetonitrile containing 200 ng/mL niflumic acid as internal standard. Samples were centrifuged at 3500 g for 10 minutes and the supernatant was analyzed by liquid chromatography coupled to a diode array UV detection and mass spectrometry system consisting of the Acquity ultra‐performance liquid chromatography column, Synapt G2‐S mass spectrometer, and an ultra‐performance liquid chromatography photodiode array detector (Waters, Milford, MA). The chromatographic separation of metabolites was achieved on a Waters 1.7‐μm Acquity BEH C18 (100 × 2.1 mm) column maintained at 60°C. The mobile phase consisted of solvent A (0.2% formic acid in water for DPTQ and 10 mmol/L ammonium acetate in water for canagliflozin) and solvent B (100% acetonitrile). The samples were eluted, at a flow rate of 0.5 mL/min with a gradient for 5 minutes. The LC/MS full scan data were processed by Metabolynx (Waters, Milford, MA) to identify metabolites. Product ion spectra were acquired to confirm the metabolites. The mass spectrometer was operated in positive ion mode with an electrospray ionization source. The parameters for the chamber were: capillary 1.0 kV, sample cone 50 V, source temperature 120°C, desolvation 500°C, and collision energy 25 V. The peak areas for parent, metabolite and internal standard were integrated to allow for comparison between conditions.

[4] = Recovery of parent drug and glucuronide metabolites in urine, bile and feces of BDC and intact dogs; format: in vivo, beagle dog; details: for % dose in feces, Parent / % dose in bile, Parent / renal excretion of parent drug / % dose in urine, Parent: 0.5 mg/kg IV; for % dose in feces, Parent / % dose in bile, Parent / % dose in urine, Parent: over 48 hours; for % dose in bile, Parent: 0.5 mg/kg; for renal excretion of parent drug: dog (BDC and intact); for Biliary excretion % of glucuronide / Urinary excretion % of glucuronide: dog; for Biliary excretion % of glucuronide: BDC; for Urinary excretion % of glucuronide: BDC and/or intact
Method: Canagliflozin and DPTQ, both at 0.5 mg/kg, were administered intravenously in 25 mmol/L phosphate buffer (pH 8) containing 10% dimethylacetamide (v/v), 15% ethanol (v/v) via a cephalic vein. Total volume administered was 1 mL/kg. Dogs were housed in stainless steel metabolic cages during the study. Serial blood samples were collected from the jugular vein at 0.08, 0.25, 0.5, 1, 2, 4, 8, 12, 24, 36 and 48‐hours post‐dose with collection tubes containing anticoagulant K3‐EDTA. Plasma was obtained by centrifugation at 1600g for 10 minutes. Cumulative urine samples were collected between 0‐12, 12‐24, 24‐36 and 36‐48 hours and feces were collected between 0‐24 and 24‐48 hours in both intact and BDC dogs. Bile samples were collected between 0‐12, 12‐24, 24‐36, 36‐48 hours in BDC dogs. The weights of all samples except blood and plasma were recorded. All the samples were stored at −70°C until analysis by liquid chromatography tandem‐mass spectrometry (LC‐MS/MS) was performed.
Aliquots of plasma, urine, bile or feces homogenate (50 µL) were incubated with equal volume of 0.2 mol/L sodium acetate buffer (pH 5.0), and 15 μL of β‐glucuronidase (>85 000 units/mL) in a 37°C water bath overnight. The samples were extracted for LC‐MS/MS after the hydrolysis was performed. […] The concentration of O‐glucuronides was determined by subtracting the concentration from the aliquot without treatment of β‐glucuronidase from the one with enzyme treatment.
Canagliflozin and DPTQ in plasma, bile, urine and feces were quantified using LC‐MS/MS. All samples plasma, urine and bile) were mixed with an organic internal standard solution essentially described previously,15 to precipitate protein and centrifuged, and the resulting supernatants were analyzed using AB Sciex API 4000 quadrupole mass spectrometer (Applied Biosystems, Foster City, CA) equipped with a TurboIonSpray interface. The feces samples were homogenized in MeOH:H2O (1:1) and shaken vigorously to obtain slurry. The homogenates then went through the sample extraction along with other matrices. The blank plasma, urine, bile and feces was spiked with internal standard for calibration curve. The pumps were Shimadzu LC‐10AD units with a SCL‐10A controller (Kyoto, Japan), and a Z‐215 liquid handler (Gilson, Middleton, WI) was used as the autosampler. All compounds were chromatographically separated using a Betasil javelin C18 20 × 2.1‐mm 5‐μm HPLC column (Thermo Fisher Scientific, Waltham, MA). The mobile phase consisted of solvent A (1 mmol/L ammonium bicarbonate in water) and solvent B (1 mmol/L ammonium bicarbonate in methanol). Drugs and metabolites were detected in positive ion mode, using selected ion mode: canagliflozin 462.2 → 191.1 m/z, DPTQ 436.2 → 158.9 m/z, and DPTQ‐O‐glucuronide 612.2 → 418.1.

[5] = with 1 mmol/L ABT, 30 minutes pre-incubation, 1 mmol/L ABT pre‐incubation 30 minutes, read-out: Clint with ABT
[6] = 10^6 cells/mL, read-out: Clint without ABT

Compound	hepatocyte CLint at 0.3 µmol/L [1, 5] [µL/min/1e6 cells]	hepatocyte CLint at 0.3 µmol/L [1, 6] [µL/min/1e6 cells]	percentage of the metabolism not inhibited by ABT [2] [%]	% of inhibition by ABT [2]	Hepatic fm by UGT [2]	Peak area (+ABT) [3]	Peak area (‐ABT) [3]	% dose in feces, Parent ([4]; BDC dog) [% dose]	% dose in bile, Parent ([4]; BDC dog)	renal excretion of parent drug [4]	Biliary excretion % of glucuronide [4]	Urinary excretion % of glucuronide [4]	% dose in feces, Parent ([4]; intact dog)	% dose in urine, Parent ([4]; intact dog) [% dose]	% of inhibition by ABT ([2]; listed as canagliflozin) [%]	% dose in urine, Parent ([4]; BDC dog, ND = below quantitative limit 1 ng/mL) [% dose]	% dose in bile, Parent ([4]; BDC dog, listed as canagliflozin) [% dose]
C[C@H]1c2cccc(CC(C)(C)O)c2C[C@H](CO)N1C(=O)Cc1c(Cl)cccc1Cl [DPTQ, 2‐(2,6‐dichlorophenyl)‐1‐((1S,3R)‐5‐(2‐hydroxy‐2‐methylpropyl)‐3‐(hydroxymethyl)‐1‐methyl‐3,4‐dihydroisoquinolin‐2(1H)‐yl)ethan‐1‐one]	18.3 ± 5.9	38.6 ± 8.5	53.5	46.5% and 46.5 ± 6.6%	Moderate (moderate 30%‐70%)	2364	2810	2.48 ± 4.8	8.91 % dose and 8.91 ± 8.9 % dose	< 1 % of dose	Moderate (moderate 30%‐70%)	Low (Low 0%‐30%)	13.5 ± 5.8 ^a % dose	0.64 ± 1.1	–	–	–
Cc1ccc([C@@H]2O[C@H](CO)[C@@H](O)[C@H](O)[C@H]2O)cc1Cc1ccc(-c2ccc(F)cc2)s1 [Canagliflozin]	6 ± 3.3	6.5 ± 3.6	87.3	12.7 ± 14.1%	Low (Low 0%‐30%)	2019	3414	3.3 ± 0.7	4.66 ± 1.4 % dose	< 1 % of dose	Low (Low 0%‐30%)	Low (Low 0%‐30%)	2.25 ± 1.3 % dose	0.27 ± 0.15	12.7	0.05 ± 0.08	4.66
